Here are results for two molecules from ChEMBL document CHEMBL4334438, “Discovery of novel glycogen synthase kinase-3α inhibitors: Structure-based virtual screening, preliminary SAR and biological evaluation for treatment of acute myeloid leukemia” (Eur J Med Chem, 2019).

The structures appear in SMILES notation.

Experiment [1] deals with TGF-beta receptor type-1 (Homo sapiens), P36897 [T204D]. Description: Inhibition of human TGFBR1 T204D mutant (200 to end residues) assessed as residual activity at 1 uM using casein as substrate measured after 40 mins in presence of [gamma33P]ATP by scintillation counting method relative to control.
The target in experiment [2] is Mitogen-activated protein kinase 14 (Homo sapiens) (UniProt Q16539). Briefly: Inhibition of recombinant human full length SAPK2a assessed as residual activity at 1 uM using myelin basic protein as substrate measured after 40 mins in presence of [gamma33P]ATP by scintillation counting method relative to control.
Experiment [3] concerns the target Ephrin type-A receptor 4 (Homo sapiens) (UniProt P54764). Briefly: Inhibition of recombinant human EphA4 (601 to 892 residues) assessed as residual activity at 1 uM using poly(Glu, Tyr) 4:1 as substrate at 40 mins in presence of [gamma-33ATP] by scintillation counting based radiometry assay relative to control.
Experiment [4] concerns the target Ribosomal protein S6 kinase alpha-6 (Homo sapiens) (UniProt Q9UK32). Briefly: Inhibition of recombinant full length human Rsk4 assessed as residual activity at 1 uM using LRRASLG as substrate measured after 40 mins in presence of [gamma33P]ATP by scintillation counting method relative to control.
Experiment [5] has as its target Tau-tubulin kinase 1 (Homo sapiens) (UniProt Q5TCY1). Briefly: Inhibition of human TTBK1 (1 to 479 residues) assessed as residual activity at 1 uM using Casein as substrate measured after 40 mins in presence of [gamma33P]ATP by scintillation counting method relative to control.
Experiment [6] addresses Serine/threonine-protein kinase 35 (Homo sapiens) (UniProt Q8TDR2). Briefly: Inhibition of recombinant full length human CLIK1 assessed as residual activity at 1 uM using RSRSRSRSRSRS as substrate incubated 40 mins in presence of [gamma-33ATP] by scintillation counting based radiometry assay relative to control.
Experiment [7] has as its target Serine/threonine-protein kinase mTOR (Homo sapiens) (UniProt P42345). Description: Inhibition of recombinant full-length human mTOR assessed as residual activity at 1 uM measured after 40 mins in presence of [gamma33P]ATP by scintillation counting method relative to control.
In experiment [8] the target is Maternal embryonic leucine zipper kinase (Homo sapiens) (UniProt Q14680). Briefly: Inhibition of recombinant human MELK (1 to 340 residues) assessed as residual activity at 1 uM using KKLNRTLSFAEPG as substrate incubated for 40 mins in presence of [gamma-33ATP by scintillation counting based radiometry assay relative to control.
Experiment [9] deals with Ribosomal protein S6 kinase alpha-5 (Homo sapiens) (UniProt O75582). Briefly: Inhibition of recombinant human MSK1 (2 to end residues) assessed as residual activity at 1 uM using GRPRTSSFAEGKK as substrate measured after 40 mins in presence of [gamma33P]ATP by scintillation counting method relative to control.
Experiment [10] deals with Serine/threonine-protein kinase NLK (Homo sapiens) (UniProt Q9UBE8). Description: Inhibition of recombinant human NLK (121 to end residues) assessed as residual activity at 1 uM using myelin basic protein as substrate measured after 40 mins in presence of [gamma33P]ATP by scintillation counting method relative to control.
Experiment [11] concerns the target Phosphorylase b kinase gamma catalytic chain, skeletal muscle/heart isoform (Homo sapiens) (UniProt Q16816). Description: Inhibition of recombinant full-length human PhKgamma1 assessed as residual activity at 1 uM using KKLNRTLSFAEPG as substrate measured after 120 mins in presence of [gamma33P]ATP by scintillation counting method relative to control.
The target of experiment [12] is TRAF2 and NCK-interacting protein kinase (Homo sapiens) (UniProt Q9UKE5). Description: Inhibition of human TNIK (1 to 367 residues) assessed as residual activity at 1 uM using RLGRDKYKTLRQIRQ as substrate measured after 40 mins in presence of [gamma33P]ATP by scintillation counting method relative to control.
Experiment [13] has as its target Serine/threonine-protein kinase 38-like (Homo sapiens) (UniProt Q9Y2H1). Briefly: Inhibition of recombinant human NDR2 (83 to end residues) assessed as residual activity at 1 uM using RSRSRSRSRSRSRSR as substrate measured after 40 mins in presence of [gamma33P]ATP by scintillation counting method relative to control.
In experiment [14] the target is FKBP12A/mTOR (Homo sapiens) (UniProt P62942+P42345). Briefly: Inhibition of recombinant full length human mTOR/FKBP12 assessed as residual activity at 1 uM measured after 40 mins in presence of [gamma33P]ATP by scintillation counting based radiometry assay relative to control. It counts as protein-complex assay.
The subject of experiment [15] is Serine/threonine-protein kinase Nek4 (Homo sapiens), P51957 [P225A]. Description: Inhibition of recombinant full-length human NEK4 P225A mutant assessed as residual activity at 1 uM using myelin basic protein as substrate measured after 40 mins in presence of [gamma33P]ATP by scintillation counting method relative to control.
Experiment [16] concerns the target PI3K p110 beta/p85 alpha (Homo sapiens) (UniProt P27986+P42338). Briefly: Inhibition of recombinant full-length human PI3K p110beta/p85alpha at 1 uM assessed as residual activity at 1 uM using phosphatidylinositol-4, 5-bisphosphate as substrate measured after 40 mins by fluorescence assay. It counts as protein-complex assay.
Experiment [17] concerns the target Activin receptor type-1B (Homo sapiens) (UniProt P36896). Description: Inhibition of human ALK4 (150 to end residues) assessed as residual activity at 1 uM using casein as substrate incubated for 40 mins in presence of [gamma-33ATP] by scintillation counting based radiometry assay relative to control.
Experiment [18] addresses Serine/threonine-protein kinase 32A (Homo sapiens) (UniProt Q8WU08). Description: Inhibition of recombinant full-length human STK32A at 1 uM assessed as residual activity at 1 uM using casein as substrate measured after 120 mins in presence of [gamma33P]ATP by scintillation counting method relative to control.
The target in experiment [19] is Hepatocyte growth factor receptor (Homo sapiens) (UniProt P08581). Briefly: Inhibition of recombinant human MET A1209G/V1290L mutant (974 to end residues) assessed as residual activity at 1 uM using KKKGQEEEYVFIE as substrate incubated for 40 mins in presence of [gamma-33ATP by scintillation counting based radiometry assay relative to control.
Experiment [20] deals with Serine/threonine-protein kinase TBK1 (Homo sapiens) (UniProt Q9UHD2). Description: Inhibition of recombinant full-length human TBK1 at 1 uM assessed as residual activity at 1 uM using KRRRALS(p)VASLPGL as substrate measured after 40 mins in presence of [gamma33P]ATP by scintillation counting method relative to control.
For experiment [21], the target named is Glycogen synthase kinase-3 alpha (Homo sapiens, UniProt P49840). Description: Inhibition of human GSK-3alpha S449A mutant (2 to end residues) using phospho GS2 peptide as substrate after 40 mins in presence of [gamma-33ATP] by scintillation counting method.
Experiment [22] has as its target Vascular endothelial growth factor receptor 2 (Homo sapiens) (UniProt P35968). Briefly: Inhibition of human KDR (790 to end residues) assessed as residual activity at 1 uM using myelin basic protein as substrate after 40 mins by [gamma-33ATP] radiometric assay relative to control.

Ephrin type-A receptor 4 (Homo sapiens), sequence (P54764 whole entry, the tested form may be a part): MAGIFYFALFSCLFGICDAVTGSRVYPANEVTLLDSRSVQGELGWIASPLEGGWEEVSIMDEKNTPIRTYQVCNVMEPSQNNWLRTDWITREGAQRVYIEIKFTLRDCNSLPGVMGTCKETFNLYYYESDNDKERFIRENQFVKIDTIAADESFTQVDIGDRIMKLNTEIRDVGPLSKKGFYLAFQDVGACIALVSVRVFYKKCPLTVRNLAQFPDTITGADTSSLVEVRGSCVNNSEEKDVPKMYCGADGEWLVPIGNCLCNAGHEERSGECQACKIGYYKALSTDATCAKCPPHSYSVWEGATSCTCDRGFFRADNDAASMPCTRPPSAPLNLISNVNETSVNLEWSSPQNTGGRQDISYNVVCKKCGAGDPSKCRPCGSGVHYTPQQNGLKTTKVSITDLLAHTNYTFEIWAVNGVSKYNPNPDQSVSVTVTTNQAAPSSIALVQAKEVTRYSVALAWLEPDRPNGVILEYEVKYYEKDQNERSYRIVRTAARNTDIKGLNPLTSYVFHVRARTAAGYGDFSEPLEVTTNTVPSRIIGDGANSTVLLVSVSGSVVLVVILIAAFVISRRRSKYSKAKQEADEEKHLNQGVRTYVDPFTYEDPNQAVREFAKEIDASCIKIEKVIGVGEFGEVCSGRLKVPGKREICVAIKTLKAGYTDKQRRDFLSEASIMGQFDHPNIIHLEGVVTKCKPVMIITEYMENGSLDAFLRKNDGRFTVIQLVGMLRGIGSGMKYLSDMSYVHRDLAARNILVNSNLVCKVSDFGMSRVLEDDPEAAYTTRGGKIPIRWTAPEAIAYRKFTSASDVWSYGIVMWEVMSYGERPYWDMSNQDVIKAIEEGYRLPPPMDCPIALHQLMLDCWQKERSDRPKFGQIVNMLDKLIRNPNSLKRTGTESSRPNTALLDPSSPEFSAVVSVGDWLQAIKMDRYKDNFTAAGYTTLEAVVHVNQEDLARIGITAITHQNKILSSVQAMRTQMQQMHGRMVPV
Glycogen synthase kinase-3 alpha, sequence (P49840 whole entry): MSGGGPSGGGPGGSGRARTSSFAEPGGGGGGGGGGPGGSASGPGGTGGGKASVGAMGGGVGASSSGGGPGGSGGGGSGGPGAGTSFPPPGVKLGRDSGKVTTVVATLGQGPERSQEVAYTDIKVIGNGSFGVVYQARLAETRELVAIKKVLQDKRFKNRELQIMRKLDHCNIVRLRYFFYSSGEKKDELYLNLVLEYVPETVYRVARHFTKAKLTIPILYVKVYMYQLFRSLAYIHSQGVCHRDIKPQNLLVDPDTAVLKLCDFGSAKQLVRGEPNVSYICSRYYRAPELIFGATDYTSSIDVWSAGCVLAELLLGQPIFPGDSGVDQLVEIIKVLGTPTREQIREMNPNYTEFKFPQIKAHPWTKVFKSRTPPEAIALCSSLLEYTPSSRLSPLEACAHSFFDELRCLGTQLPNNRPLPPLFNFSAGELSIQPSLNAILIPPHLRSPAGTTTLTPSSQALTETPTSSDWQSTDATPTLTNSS
Serine/threonine-protein kinase 38-like (Homo sapiens), sequence (Q9Y2H1 2-464 limits assumed): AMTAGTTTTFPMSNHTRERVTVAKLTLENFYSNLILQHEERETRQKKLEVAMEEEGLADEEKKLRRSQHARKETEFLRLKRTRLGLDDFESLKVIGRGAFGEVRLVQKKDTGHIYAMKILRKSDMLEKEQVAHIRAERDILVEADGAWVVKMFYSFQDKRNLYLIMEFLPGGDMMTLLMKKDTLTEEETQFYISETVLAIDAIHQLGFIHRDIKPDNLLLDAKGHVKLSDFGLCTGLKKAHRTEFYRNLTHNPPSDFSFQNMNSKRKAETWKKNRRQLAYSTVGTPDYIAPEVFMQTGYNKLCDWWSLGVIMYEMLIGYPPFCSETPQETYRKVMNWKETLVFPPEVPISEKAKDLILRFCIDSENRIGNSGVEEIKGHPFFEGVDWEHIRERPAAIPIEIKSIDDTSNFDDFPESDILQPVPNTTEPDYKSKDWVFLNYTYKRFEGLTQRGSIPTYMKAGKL
Serine/threonine-protein kinase Nek4 (Homo sapiens), P51957 [P225A], sequence (P51957 whole entry P225A): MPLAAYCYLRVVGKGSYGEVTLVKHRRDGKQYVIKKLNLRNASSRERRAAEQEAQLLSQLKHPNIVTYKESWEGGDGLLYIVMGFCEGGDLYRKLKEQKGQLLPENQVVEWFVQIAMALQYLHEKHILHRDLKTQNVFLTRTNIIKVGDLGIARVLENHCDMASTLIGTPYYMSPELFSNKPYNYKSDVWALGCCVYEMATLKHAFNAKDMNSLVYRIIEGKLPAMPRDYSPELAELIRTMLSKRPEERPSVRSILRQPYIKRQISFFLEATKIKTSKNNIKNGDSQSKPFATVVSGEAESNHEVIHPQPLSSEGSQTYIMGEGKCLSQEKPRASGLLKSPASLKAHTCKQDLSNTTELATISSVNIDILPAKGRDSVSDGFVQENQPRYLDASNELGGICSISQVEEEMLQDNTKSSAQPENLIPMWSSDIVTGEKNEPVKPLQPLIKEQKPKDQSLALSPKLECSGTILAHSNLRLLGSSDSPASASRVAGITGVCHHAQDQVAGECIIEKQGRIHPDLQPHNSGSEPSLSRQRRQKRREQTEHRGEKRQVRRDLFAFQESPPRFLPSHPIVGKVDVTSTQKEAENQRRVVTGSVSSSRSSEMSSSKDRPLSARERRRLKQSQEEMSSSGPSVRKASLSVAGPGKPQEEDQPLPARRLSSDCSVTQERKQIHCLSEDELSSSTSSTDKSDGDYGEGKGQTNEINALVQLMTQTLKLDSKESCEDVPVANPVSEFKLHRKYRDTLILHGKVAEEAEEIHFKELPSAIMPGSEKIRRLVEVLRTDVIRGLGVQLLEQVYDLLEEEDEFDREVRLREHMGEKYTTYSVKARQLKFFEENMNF
FKBP12A/mTOR (Homo sapiens), sequence (P62942 2-108 limits assumed, other chains not shown): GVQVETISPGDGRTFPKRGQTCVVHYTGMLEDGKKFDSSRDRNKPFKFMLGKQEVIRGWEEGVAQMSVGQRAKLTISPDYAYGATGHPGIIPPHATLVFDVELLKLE
Serine/threonine-protein kinase 35 (Homo sapiens), sequence (Q8TDR2 whole entry): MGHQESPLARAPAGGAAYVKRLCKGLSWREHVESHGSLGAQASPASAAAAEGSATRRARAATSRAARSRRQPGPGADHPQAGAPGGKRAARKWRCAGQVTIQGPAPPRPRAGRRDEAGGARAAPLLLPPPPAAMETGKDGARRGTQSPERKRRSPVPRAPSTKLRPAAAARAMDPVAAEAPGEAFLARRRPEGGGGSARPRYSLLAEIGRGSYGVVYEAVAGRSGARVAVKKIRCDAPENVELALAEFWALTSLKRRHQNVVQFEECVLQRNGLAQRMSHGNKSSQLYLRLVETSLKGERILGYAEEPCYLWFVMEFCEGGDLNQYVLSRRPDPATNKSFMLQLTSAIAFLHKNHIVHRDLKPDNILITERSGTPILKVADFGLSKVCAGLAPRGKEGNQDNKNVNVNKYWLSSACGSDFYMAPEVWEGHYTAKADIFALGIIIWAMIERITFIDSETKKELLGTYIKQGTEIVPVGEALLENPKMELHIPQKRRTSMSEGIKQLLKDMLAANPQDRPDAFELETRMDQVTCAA
Tau-tubulin kinase 1 (Homo sapiens), sequence (Q5TCY1 whole entry, the tested form may be a part): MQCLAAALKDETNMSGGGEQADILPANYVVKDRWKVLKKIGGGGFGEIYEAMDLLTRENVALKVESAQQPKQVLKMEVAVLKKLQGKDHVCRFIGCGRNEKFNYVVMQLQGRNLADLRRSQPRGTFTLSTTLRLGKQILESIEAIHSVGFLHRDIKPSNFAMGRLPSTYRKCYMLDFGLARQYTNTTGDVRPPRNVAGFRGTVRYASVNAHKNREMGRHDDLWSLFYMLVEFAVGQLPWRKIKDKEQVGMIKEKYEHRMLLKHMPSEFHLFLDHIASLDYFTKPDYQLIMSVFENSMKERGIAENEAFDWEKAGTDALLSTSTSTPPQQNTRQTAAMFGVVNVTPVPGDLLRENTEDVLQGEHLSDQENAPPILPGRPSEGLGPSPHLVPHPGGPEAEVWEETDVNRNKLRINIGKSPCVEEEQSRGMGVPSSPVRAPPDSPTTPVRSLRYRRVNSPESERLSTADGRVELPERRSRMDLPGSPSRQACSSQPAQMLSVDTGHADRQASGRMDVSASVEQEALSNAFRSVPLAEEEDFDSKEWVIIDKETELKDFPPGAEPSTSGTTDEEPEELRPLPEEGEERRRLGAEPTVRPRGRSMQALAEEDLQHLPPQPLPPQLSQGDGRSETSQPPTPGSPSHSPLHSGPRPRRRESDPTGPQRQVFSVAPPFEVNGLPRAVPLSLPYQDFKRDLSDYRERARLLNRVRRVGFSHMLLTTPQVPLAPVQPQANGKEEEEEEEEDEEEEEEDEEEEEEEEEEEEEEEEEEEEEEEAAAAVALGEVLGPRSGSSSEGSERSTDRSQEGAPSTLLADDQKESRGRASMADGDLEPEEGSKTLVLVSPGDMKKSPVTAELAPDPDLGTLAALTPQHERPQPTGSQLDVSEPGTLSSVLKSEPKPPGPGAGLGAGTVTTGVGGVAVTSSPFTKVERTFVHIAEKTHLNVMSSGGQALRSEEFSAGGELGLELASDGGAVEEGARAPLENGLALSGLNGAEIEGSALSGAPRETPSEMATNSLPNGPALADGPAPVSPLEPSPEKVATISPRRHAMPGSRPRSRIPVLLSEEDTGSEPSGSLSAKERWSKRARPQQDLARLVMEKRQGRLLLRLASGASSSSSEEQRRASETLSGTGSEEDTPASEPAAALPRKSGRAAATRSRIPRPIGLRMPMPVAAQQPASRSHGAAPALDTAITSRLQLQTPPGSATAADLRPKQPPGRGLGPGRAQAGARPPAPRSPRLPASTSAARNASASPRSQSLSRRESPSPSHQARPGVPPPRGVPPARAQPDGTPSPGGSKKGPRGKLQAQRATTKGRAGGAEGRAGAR

For orientation: IC50 means the concentration that gives 50% inhibition. `N=C1NC(=O)/C(=C\c2ccc(-c3cccc([N+](=O)[O-])c3)o2)S1`: the Activity in experiment [1] came out at 111%; in experiment [2], 100%; in [3], 103%; in experiment [4], 99%; in experiment [5], 104%; in experiment [6], 51%. In addition, the Activity in [7] was 95%; in [8], 89%; in experiment [9], 95%; in [10] it was 59%; in [11] it was 91%; in experiment [12], 74%. Besides, the Activity is 92% in experiment [13]; 107% in [14]; 98% in experiment [15]; 99% in [16]; 109% in [17]; 100% in [18]. The Activity is 96% in experiment [19], 105% in experiment [20] and 94% in experiment [22]. Also, the IC50 in experiment [21] came to 49 nM.
As to `C=CCOC(=O)c1cc(-c2ccc(/C=C3/NC(=S)NC3=O)o2)ccc1Cl`, the Activity was 92% in experiment [1]; 101% in experiment [2]; 98% in experiment [3]; 92% in [4]; 114% in [5]; 74% in [6]. Moreover, the Activity was 88% in experiment [7]; 105% in [8]; 100% in [9]; 64% in [10]; 94% in experiment [11]; 52% in [12]. For the same molecule, the Activity was determined as 118% in experiment [13]; 97% in [14]; 92% in experiment [15]; 97% in [16]; 105% in experiment [17]; 101% in experiment [18]. Further, the results for the Activity in experiment [19], in experiment [20] and in experiment [22] were 102%, 98% and 98%, respectively. Further, the concentration for half-maximal inhibition (IC50) in [21] came to 33 nM.
